Test system: 857933-349-R-J2-PDC complex spheroids, viability
Experiment: Anticancer human tumor 857933-349-R-J2-PDC patient-derived colon adenocarcinoma cell line growth inhibition [GQUAD]
Conditions: for IC50: curve of first compound; for viability, T/C: stronger effect = lower value
In short: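 Multi-cell-type spheroids of tumor cells with HUVEC and mesenchymal stem cells, treated with drug combinations. Concentrations descend in half-log steps from near clinical Cmax, or from 10 microM where Cmax is unknown; viability read-out.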

[1] = second compound 0.0316 µM, first compound 0.0316 µM
[2] = second compound 0.0316 µM, first compound 0.1 µM
[3] = second compound 0.0316 µM, first compound 0.316 µM
[4] = second compound 0.0316 µM, first compound 1 µM
[5] = second compound 0.0316 µM, first compound 3.16 µM
[6] = second compound 0.0316 µM, first compound 10 µM
[7] = second compound 0.1 µM, first compound 0.0316 µM
[8] = second compound 0.1 µM, first compound 0.1 µM
[9] = second compound 0.1 µM, first compound 0.316 µM
[10] = second compound 0.1 µM, first compound 1 µM
[11] = second compound 0.1 µM, first compound 3.16 µM
[12] = second compound 0.1 µM, first compound 10 µM
[13] = second compound 0.316 µM, first compound 0.0316 µM
[14] = second compound 0.316 µM, first compound 0.1 µM
[15] = second compound 0.316 µM, first compound 0.316 µM
[16] = second compound 0.316 µM, first compound 1 µM
[17] = second compound 0.316 µM, first compound 3.16 µM
[18] = second compound 0.316 µM, first compound 10 µM
[19] = second compound 1 µM, first compound 0.0316 µM
[20] = second compound 1 µM, first compound 0.1 µM
[21] = second compound 1 µM, first compound 0.316 µM
[22] = second compound 1 µM, first compound 1 µM
[23] = second compound 1 µM, first compound 3.16 µM
[24] = second compound 1 µM, first compound 10 µM
[25] = second compound 3.16 µM, first compound 0.0316 µM
[26] = second compound 3.16 µM, first compound 0.1 µM
[27] = second compound 3.16 µM, first compound 0.316 µM
[28] = second compound 3.16 µM, first compound 1 µM
[29] = second compound 3.16 µM, first compound 3.16 µM
[30] = second compound 3.16 µM, first compound 10 µM
[31] = second compound 10 µM, first compound 0.0316 µM
[32] = second compound 10 µM, first compound 0.1 µM
[33] = second compound 10 µM, first compound 0.316 µM
[34] = second compound 10 µM, first compound 1 µM
[35] = second compound 10 µM, first compound 3.16 µM
[36] = second compound 10 µM, first compound 10 µM
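Further: spheroids exposed to compounds for one week before readout.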
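Wherever viability, T/C is given: percent viability relative to vehicle DMSO wells taken as 100%.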

`Cc1cccc(N(C)C(=O)C2C(O)CCN2c2nc(C)cc(C(F)(F)F)c2C#N)c1` (stereo unspecified) + Cc1[nH]c2ccc(F)cc2c1-c1nc2c3cccnc3c3ncccc3c2[nH]1 was tested, and the IC50 (second compound 0.0316 µM) was > 10 µM, the IC50 (second compound 0.1 µM) was > 10 µM and the IC50 (second compound 0.316 µM) was > 10 µM. For the same molecule, the IC50 (second compound 1 µM) was > 10 µM, the IC50 (second compound 3.16 µM) was > 10 µM and the IC50 (second compound 10 µM) was > 10 µM. The viability, T/C [1] was 101%, the viability, T/C [2] was 99.1% and the viability, T/C [3] was 91.6%. For the same molecule, the viability, T/C [4] was 88.2%, the viability, T/C [5] was 98.3% and the viability, T/C [6] was 92%. The viability, T/C [7] was 95.2%, the viability, T/C [8] was 98.4% and the viability, T/C [9] was 98.8%. It also gave a viability, T/C [10] of 97.9%, a viability, T/C [11] of 102% and a viability, T/C [12] of 96.7%. For the same molecule, the viability, T/C [13] was 101%, the viability, T/C [14] was 104% and the viability, T/C [15] was 106%. The viability, T/C [16] was 102%, the viability, T/C [17] was 101% and the viability, T/C [18] was 110%. The viability, T/C [19] was 94.9%, the viability, T/C [20] was 101% and the viability, T/C [21] was 102%. For the same molecule, the viability, T/C [22] was 103%, the viability, T/C [23] was 110% and the viability, T/C [24] was 94.7%. The viability, T/C [25] was 94.6%, the viability, T/C [26] was 97.4% and the viability, T/C [27] was 111%. For the same molecule, the viability, T/C [28] was 100%, the viability, T/C [29] was 98.5% and the viability, T/C [30] was 99.7%. The viability, T/C [31] was 96.1%, the viability, T/C [32] was 101% and the viability, T/C [33] was 93%. For the same molecule, the viability, T/C [34] was 95%, the viability, T/C [35] was 97.5% and the viability, T/C [36] was 88.3%.
With `C=CC(=O)N1CCN(c2nc(=O)n(-c3c(C)ccnc3C(C)C)c3nc(-c4c(O)cccc4F)c(F)cc23)C(C)C1` (stereo unspecified) + CN(C)c1ccc(Nc2c3ccc(NC(=O)CCN4CCCC4)cc3nc3cc(NC(=O)CCN4CCCC4)ccc23)cc1 the IC50 (second compound 0.0316 µM) was > 10 µM, the IC50 (second compound 0.1 µM) was > 10 µM and the IC50 (second compound 0.316 µM) was > 10 µM. The IC50 (second compound 1 µM) was > 10 µM, the IC50 (second compound 3.16 µM) was > 10 µM and the IC50 (second compound 10 µM) was > 10 µM. For the same molecule, the viability, T/C [1] was 114%, the viability, T/C [2] was 91.7% and the viability, T/C [3] was 108%. It also gave a viability, T/C [4] of 97.3%, a viability, T/C [5] of 114% and a viability, T/C [6] of 112%. It also gave a viability, T/C [7] of 104%, a viability, T/C [8] of 102% and a viability, T/C [9] of 102%. It also gave a viability, T/C [10] of 102%, a viability, T/C [11] of 108% and a viability, T/C [12] of 113%. For the same molecule, the viability, T/C [13] was 105%, the viability, T/C [14] was 99.5% and the viability, T/C [15] was 99%. It also gave a viability, T/C [16] of 99.8%, a viability, T/C [17] of 112% and a viability, T/C [18] of 107%. The viability, T/C [19] was 97.2%, the viability, T/C [20] was 90.8% and the viability, T/C [21] was 102%. The viability, T/C [22] was 99.6%, the viability, T/C [23] was 113% and the viability, T/C [24] was 98.3%. It also gave a viability, T/C [25] of 90.2%, a viability, T/C [26] of 79.5% and a viability, T/C [27] of 91.4%. The viability, T/C [28] was 89.9%, the viability, T/C [29] was 100% and the viability, T/C [30] was 88%. For the same molecule, the viability, T/C [31] was 73%, the viability, T/C [32] was 77.9% and the viability, T/C [33] was 70.8%. The viability, T/C [34] was 77.5%, the viability, T/C [35] was 82.3% and the viability, T/C [36] was 79.3%.
With `CC(=O)O[C@H]1C(=O)[C@@]2(C)[C@H]([C@H](OC(=O)c3ccccc3)[C@]3(O)C[C@H](OC(=O)[C@H](O)[C@@H](NC(=O)c4ccccc4)c4ccccc4)C(C)=C1C3(C)C)[C@]1(OC(C)=O)CO[C@@H]1C[C@@H]2O` + Cc1cnc(CNC(=O)c2c(=O)c3ccc(N4CCCN(C)CC4)nc3n3c2sc2ccccc23)cn1 the IC50 (second compound 0.0316 µM) was < 0.0316 µM, the IC50 (second compound 0.1 µM) was < 0.0316 µM and the IC50 (second compound 0.316 µM) was < 0.0316 µM. The IC50 (second compound 1 µM) was < 0.0316 µM, the IC50 (second compound 3.16 µM) was < 0.0316 µM and the IC50 (second compound 10 µM) was < 0.0316 µM. It also gave a viability, T/C [1] of 40.6%, a viability, T/C [2] of 13.7% and a viability, T/C [3] of 8.87%. For the same molecule, the viability, T/C [4] was 6.32%, the viability, T/C [5] was 6.9% and the viability, T/C [6] was 11.3%. For the same molecule, the viability, T/C [7] was 31.5%, the viability, T/C [8] was 14% and the viability, T/C [9] was 6.78%. For the same molecule, the viability, T/C [10] was 6.48%, the viability, T/C [11] was 6.61% and the viability, T/C [12] was 7.71%. It also gave a viability, T/C [13] of 14.6%, a viability, T/C [14] of 9.67% and a viability, T/C [15] of 5.73%. For the same molecule, the viability, T/C [16] was 5.21%, the viability, T/C [17] was 4.57% and the viability, T/C [18] was 6.73%. It also gave a viability, T/C [19] of 3.73%, a viability, T/C [20] of 3.78% and a viability, T/C [21] of 3.68%. It also gave a viability, T/C [22] of 2.27%, a viability, T/C [23] of 2.21% and a viability, T/C [24] of 3.57%. For the same molecule, the viability, T/C [25] was 2.95%, the viability, T/C [26] was 2.49% and the viability, T/C [27] was 1.98%. It also gave a viability, T/C [28] of 1.77%, a viability, T/C [29] of 1.78% and a viability, T/C [30] of 2.45%. It also gave a viability, T/C [31] of 0.16%, a viability, T/C [32] of 0.18% and a viability, T/C [33] of 0.19%. It also gave a viability, T/C [34] of 0.14%, a viability, T/C [35] of 0.17% and a viability, T/C [36] of 0.19%.

Source: PubChem BioAssay AID2060491 (Molecular Pharmacology Branch, DTP, NCI, 2025)
